{"source": "patent US12503484B2", "about": "“Androstane derivatives with activity as pure or predominantly pure stimulators of SERCA2a for the treatment of heart failure” (Seismic Pharmaceuticals, priority 2019, dated 2025)", "key": {"[1]": {"molecular_target": "dog renal Na^+/K^+ ATPase (Canis lupus familiaris (Dog) (Canis familiaris), UniProt P50997)", "test": "biochemical", "conditions": "IC50 inhibition of dog renal Na+/K+ ATPase, purified dog kidney enzyme", "source_text": "Inhibition of Dog Renal Na^+/K^+ ATPase Activity\nThe compounds were thus tested for their inhibitory effect on the canine renal Na^+/K^+ ATPase enzyme.\nKidneys were excised from 1-3 year-old male beagle dogs (WuXi AppTec, Suzhou Co., Ltd. 1318 Wuzhong Ave., Wuzhong District Suzhou, 215104 P.R. China) under pentobarbital anesthesia (Import Authorization from Italian Health Ministry 0009171-09/04/2015-DGSAF-COD_UO-P, 2015). Kidneys were sliced and the outer medulla was dissected and suspended (1 g/10 ml) in a sucrose-histidine solution containing 250 mM sucrose, 30 mM histidine, and 5 mM EDTA, pH 7.2. The tissue was homogenized by using an Ultra Turrax homogenizer. The sample was centrifuged at 6,000 g for 15 min. Next, the supernatant was decanted and centrifuged at 48,000 g for 30 min. The pellet was suspended in the sucrose-histidine buffer and incubated for 20 min with a sodium-dodecyl-sulphate (SDS) solution dissolved in a gradient buffer containing 25 mM imidazole and 1 mM EDTA, pH 7.5. The sample was layered on the top of a sucrose discontinuous gradient (10, 15, and 29.4%) and centrifuged at 60,000 g for 115 min. The pellet was suspended in the gradient buffer.\nIncreasing concentrations of the standard ouabain, or tested compound, were incubated with 0.3 μg of purified dog kidney enzyme for 10 min at 37° C. in 120 μl final volume of a medium containing 140 mM NaCl, 3 mM MgCl2, 50 mM Hepes-Tris, 3 mM ATP, pH 7.5. Then, 10 μl of a solution containing 10 mM KCl and 20 nCi of ^32P-ATP (3-10 Ci/mmol, Perkin Elmer) were added. The reaction was allowed to continue for 15 min at 37° C. and then stopped by acidification with 20% v/v ice-cold perchloric acid. ^32P was separated by centrifugation with activated Charcoal (Norit A, Serva) and the radioactivity was counted. The inhibitory activity was expressed as percent of the control samples carried out in the absence of ouabain, or tested compound."}, "SERCA2a": {"molecular_target": "SERCA2a (Cavia porcellus, UniProt A0A286XD73)", "sequence (A0A286XD73 1-997)": "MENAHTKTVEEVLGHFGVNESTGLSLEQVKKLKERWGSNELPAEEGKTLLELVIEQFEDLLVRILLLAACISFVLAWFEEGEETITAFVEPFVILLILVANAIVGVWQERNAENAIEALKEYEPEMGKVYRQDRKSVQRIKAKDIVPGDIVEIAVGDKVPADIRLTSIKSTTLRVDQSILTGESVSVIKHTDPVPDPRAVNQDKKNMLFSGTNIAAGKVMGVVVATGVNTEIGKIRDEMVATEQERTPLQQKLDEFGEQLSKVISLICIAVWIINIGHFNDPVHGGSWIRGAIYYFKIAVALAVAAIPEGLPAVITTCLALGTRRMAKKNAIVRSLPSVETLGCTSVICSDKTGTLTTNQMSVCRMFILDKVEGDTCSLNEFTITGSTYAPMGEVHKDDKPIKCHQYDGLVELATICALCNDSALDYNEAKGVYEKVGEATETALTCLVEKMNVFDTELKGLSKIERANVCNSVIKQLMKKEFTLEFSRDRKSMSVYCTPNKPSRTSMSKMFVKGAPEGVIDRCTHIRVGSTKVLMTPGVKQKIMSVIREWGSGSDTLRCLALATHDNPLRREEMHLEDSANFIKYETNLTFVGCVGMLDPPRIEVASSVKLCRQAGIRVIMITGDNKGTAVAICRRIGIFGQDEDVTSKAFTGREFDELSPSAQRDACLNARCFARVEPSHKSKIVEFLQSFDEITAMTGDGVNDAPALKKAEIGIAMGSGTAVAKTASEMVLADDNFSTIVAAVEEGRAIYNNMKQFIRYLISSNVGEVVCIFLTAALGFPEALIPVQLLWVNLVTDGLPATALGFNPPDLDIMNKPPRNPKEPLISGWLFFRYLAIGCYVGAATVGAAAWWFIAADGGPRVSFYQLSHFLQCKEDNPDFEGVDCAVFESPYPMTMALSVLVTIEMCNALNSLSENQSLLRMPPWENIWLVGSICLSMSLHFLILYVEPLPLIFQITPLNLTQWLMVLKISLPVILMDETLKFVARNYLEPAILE", "test": "SERCA2a ATPase activity in heart-derived SR microsomes from normal guinea-pig", "assay_type": "biochemical", "description": "SERCA2a ATPase Activity in Heart-Derived SR Microsomes from Normal Quinea-Pig\nSERCA2a activity was measured in vitro as ^32P-ATP hydrolysis at different Ca^2+ concentrations (100-4000 nM) in the absence and presence of the tested compounds, as described (Micheletti R. et al., Am J Card 2007, 99:24A-32A). Increasing concentrations of each compound (ranging from 1 to 200 nM) were pre-incubated with 2 μg of SERCA2a enriched microsomes for 5 min at 4° C. in 80 μl of a solution containing 100 mM KCl, 5 mM MgCl2, 1 μM A23187, 20 mM Tris, pH 7.5. […] SERCA2a-dependent activity was identified as the portion of total hydrolytic activity inhibited by 10 μM cyclopiazonic acid (Seidler N W et al., J Biol Chem. 1989, 264:17816-23).\nDose-response curves were fitted by using a sigmoidal equation and the activity at the maximal velocity (Vmax) and the Kd for Ca^2+ were calculated (Synergy Software KaleidaGraph 3.6). The effect of the compounds in normal guinea-pig preparations was expressed as % decrease of Kd Ca^2+ (implying an increase of affinity for Ca^2+) of a control sample run in the absence of compound (Table 2). […] Data are mean±SD, n=number of experiments, *at least p<0.05."}, "[2]": {"conditions": "read-out: Kd Ca2+ (nM) mean ± SD, compound 10 nM"}, "[3]": {"conditions": "read-out: Kd Ca2+ (nM) mean ± SD, compound 100 nM"}, "[4]": {"conditions": "compound 10 nM, read-out: Kd Ca2+ (nM) mean ± SD"}, "[5]": {"conditions": "compound 100 nM, read-out: Kd Ca2+ (nM) mean ± SD"}, "[6]": {"conditions": "compound 200 nM, read-out: Kd Ca2+ (nM) mean ± SD"}, "[7]": {"conditions": "read-out: Kd Ca2+ (nM) mean ± SD, compound 1 nM"}, "[8]": {"conditions": "read-out: Kd Ca2+ (nM) mean ± SD, compound 200 nM"}}, "note": "Like-named read-outs stand apart in the source and are kept apart here. Marks after values point to notes of the source that are not given here.", "data": [{"molecule": "C[C@]12CC/C(=C/CC3CCNCC3)CC1[C@@H](O)C[C@@H]1[C@@H]2CC[C@]2(C)C(=O)CC[C@@H]12", "note": "(stereo partly drawn) [CVie211, (Z)-3-[2-(piperidin-4-yl)ethyliden]-6alpha-hydroxyandrostane-17-one];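 for IC50: enzyme preincubated with inhibitor 10 min at 37 °C, then K^+ and ^32P-ATP added for 15 min, released ^32P counted, activity relative to untreated control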", "values": [{"measurement": "IC50", "setting": "[1]", "result": 8.3, "unit": "µM"}]}, {"molecule": "C[C@]12CC[C@H](CCC3CCNCC3)CC1[C@@H](O)C[C@@H]1[C@@H]2CC[C@]2(C)C(=O)CC[C@@H]12", "note": "(stereo partly drawn) [CVie212, 3beta-[2-(piperidin-4-yl)ethyl]-6alpha-hydroxyandrostane-17-one]", "values": [{"measurement": "% change in Ca2+ Kd vs control (negative = decrease)", "setting": "SERCA2a; compound 10 nM", "result": "−19.6", "unit": "%*"}, {"measurement": "% change in Ca2+ Kd vs control (negative = decrease)", "setting": "SERCA2a; compound 100 nM", "result": "−20.2", "unit": "%*"}, {"measurement": "Kd", "setting": "SERCA2a; [2]", "result": "409 ± 121", "unit": "nM"}, {"measurement": "Kd", "setting": "SERCA2a; [3]", "result": "406 ± 82.9", "unit": "nM"}, {"measurement": "IC50", "setting": "[1]", "result": 3.5, "unit": "µM"}]}, {"molecule": "CCOC(=O)C[C@H]1CC[C@]2(C)C3CC[C@]4(C)C(=O)CCC4C3C[C@H](O)C2C1", "note": "(stereo partly drawn) [CVie213, Ethyl (6alpha-hydroxy-17-ketoandrostane-3beta-yl) acetate]", "values": [{"measurement": "% change in Ca2+ Kd vs control (negative = decrease)", "setting": "SERCA2a; compound 10 nM", "result": "−12", "unit": "%"}, {"measurement": "Kd", "setting": "SERCA2a; [4]", "result": "432 ± 129", "unit": "nM"}, {"measurement": "% change in Ca2+ Kd vs control (negative = decrease)", "setting": "SERCA2a; compound 100 nM", "result": "−23", "unit": "%*"}, {"measurement": "Kd", "setting": "SERCA2a; [5]", "result": "378 ± 114", "unit": "nM"}, {"measurement": "% change in Ca2+ Kd vs control (negative = decrease)", "setting": "SERCA2a; compound 200 nM", "result": "−17", "unit": "%*"}, {"measurement": "Kd", "setting": "SERCA2a; [6]", "result": "407 ± 124", "unit": "nM"}, {"measurement": "IC50", "setting": "[1]", "result": "> 100", "unit": "µM"}]}, {"molecule": "C[C@]12CC[C@H](CCCC(=O)O)CC1[C@H](O)C[C@@H]1[C@@H]2CC[C@]2(C)C(=O)CC[C@@H]12", "note": "(stereo partly drawn) [CVie215, 4-(6beta-hydroxy-17-oxoandrostane-3-yl) butyric acid]", "values": [{"measurement": "Kd", "setting": "SERCA2a; compound 1 nM, read-out: Kd Ca2+ (nM) mean ± SD", "result": "530 ± 47.9", "unit": "nM"}, {"measurement": "Kd", "setting": "SERCA2a; [4]", "result": "459 ± 80.3", "unit": "nM"}, {"measurement": "Kd", "setting": "SERCA2a; [5]", "result": "437 ± 74.1", "unit": "nM"}, {"measurement": "IC50", "setting": "[1]", "result": "> 100", "unit": "µM"}]}, {"molecule": "CCOC(=O)CCC[C@H]1CC[C@]2(C)C3CC[C@]4(C)C(=O)CCC4C3C[C@H](O)C2C1", "note": "(stereo partly drawn) [CVie217, 4-(6alpha-hydroxy-17-oxoandrostane-3-yl) ethylbutiroate]", "values": [{"measurement": "% change in Ca2+ Kd vs control (negative = decrease)", "setting": "SERCA2a; compound 1 nM", "result": "−20", "unit": "%"}, {"measurement": "% change in Ca2+ Kd vs control (negative = decrease)", "setting": "SERCA2a; compound 10 nM", "result": "−24.7", "unit": "%*"}, {"measurement": "% change in Ca2+ Kd vs control (negative = decrease)", "setting": "SERCA2a; compound 100 nM", "result": "−20", "unit": "%*"}, {"measurement": "% change in Ca2+ Kd vs control (negative = decrease)", "setting": "SERCA2a; compound 200 nM", "result": "−29.4", "unit": "%*"}, {"measurement": "Kd", "setting": "SERCA2a; [7]", "result": "763 ± 103", "unit": "nM"}, {"measurement": "Kd", "setting": "SERCA2a; [2]", "result": "719 ± 142", "unit": "nM"}, {"measurement": "Kd", "setting": "SERCA2a; [3]", "result": "764 ± 120", "unit": "nM"}, {"measurement": "Kd", "setting": "SERCA2a; [8]", "result": "674 ± 150", "unit": "nM"}, {"measurement": "IC50", "setting": "[1]", "result": "> 100", "unit": "µM"}]}, {"molecule": "CCOC(=O)CCCCC[C@H]1CC[C@]2(C)C3CC[C@]4(C)C(=O)CCC4C3C[C@H](O)C2C1", "note": "(stereo partly drawn) [CVie218]", "values": [{"measurement": "% change in Ca2+ Kd vs control (negative = decrease)", "setting": "SERCA2a; compound 1 nM", "result": "−3", "unit": "%"}, {"measurement": "% change in Ca2+ Kd vs control (negative = decrease)", "setting": "SERCA2a; compound 10 nM", "result": "−7", "unit": "%*"}, {"measurement": "% change in Ca2+ Kd vs control (negative = decrease)", "setting": "SERCA2a; compound 100 nM", "result": "−19.1", "unit": "%*"}, {"measurement": "% change in Ca2+ Kd vs control (negative = decrease)", "setting": "SERCA2a; compound 200 nM", "result": "−15", "unit": "%*"}, {"measurement": "Kd", "setting": "SERCA2a; [7]", "result": "705 ± 88.8", "unit": "nM"}, {"measurement": "Kd", "setting": "SERCA2a; [2]", "result": "677 ± 13.8", "unit": "nM"}, {"measurement": "Kd", "setting": "SERCA2a; [3]", "result": "587 ± 50.5", "unit": "nM"}, {"measurement": "Kd", "setting": "SERCA2a; [8]", "result": "619 ± 48", "unit": "nM"}, {"measurement": "IC50", "setting": "[1]", "result": "> 100", "unit": "µM"}]}, {"molecule": "CNCCCC/C=C1\\CC[C@]2(C)C3CC[C@]4(C)C(=O)CCC4C3C(=O)[C@H](CO)C2C1", "note": "(stereo partly drawn) [CVie401, (E,Z)-3-(5-N-methylaminopentyliden]-6alpha-hydroxymethylandrostane-7,17-dione]", "values": [{"measurement": "IC50", "setting": "[1]", "result": 24, "unit": "µM"}]}, {"molecule": "C[C@]12CC/C(=C\\CC3CNC3)CC1[C@@H](CO)C(=O)C1C2CC[C@]2(C)C(=O)CCC12", "note": "(stereo partly drawn) [CVie403]", "values": [{"measurement": "IC50", "setting": "[1]", "result": 2.9, "unit": "µM"}]}, {"molecule": "C[C@]12CC[C@H](CCC3CNC3)CC1[C@@H](CO)C(=O)C1C2CC[C@]2(C)C(=O)CCC12", "note": "(stereo partly drawn) [CVie407]", "values": [{"measurement": "% change in Ca2+ Kd vs control (negative = decrease)", "setting": "SERCA2a; compound 100 nM", "result": "−8.9", "unit": "%"}, {"measurement": "% change in Ca2+ Kd vs control (negative = decrease)", "setting": "SERCA2a; compound 200 nM", "result": 0, "unit": "%"}, {"measurement": "Kd", "setting": "SERCA2a; [3]", "result": "390 ± 91.4", "unit": "nM"}, {"measurement": "Kd", "setting": "SERCA2a; [8]", "result": "428 ± 87.3", "unit": "nM"}, {"measurement": "IC50", "setting": "[1]", "result": 3.5, "unit": "µM"}]}, {"molecule": "C[C@]12CC[C@H](CCC3CNC3)CC1[C@@H](CO)[C@@H](O)C1C2CC[C@]2(C)C(=O)CCC12", "note": "(stereo partly drawn) [CVie408]", "values": [{"measurement": "% change in Ca2+ Kd vs control (negative = decrease)", "setting": "SERCA2a; compound 100 nM", "result": "−20.7", "unit": "%*"}, {"measurement": "% change in Ca2+ Kd vs control (negative = decrease)", "setting": "SERCA2a; compound 200 nM", "result": "−21", "unit": "%*"}, {"measurement": "Kd", "setting": "SERCA2a; [3]", "result": "356 ± 33.8", "unit": "nM"}, {"measurement": "Kd", "setting": "SERCA2a; [8]", "result": "355 ± 66.9", "unit": "nM"}, {"measurement": "IC50", "setting": "[1]", "result": 3.3, "unit": "µM"}]}, {"molecule": "C[C@]12CC[C@H](CCC3CCNC3)CC1[C@@H](CO)C(=O)C1C2CC[C@]2(C)C(=O)CCC12", "note": "(stereo partly drawn) [CVie409, 3beta-[2-(pirrolidin-3yl)ethyl]-6alpha-hydroxymethylandrostane-7,17-dione]", "values": [{"measurement": "IC50", "setting": "[1]", "result": 3.4, "unit": "µM"}]}, {"molecule": "C[C@]12CC[C@H](CCC3CCNC3)CC1[C@@H](CO)[C@@H](O)C1C2CC[C@]2(C)C(=O)CCC12", "note": "(stereo partly drawn) [CVie410, 3beta-[2-(pirrolidin-3yl)ethyl]6alpha-hydroxymethyl-7alpha-hydroxyandrostane-17-one]", "values": [{"measurement": "IC50", "setting": "[1]", "result": 3.7, "unit": "µM"}]}, {"molecule": "C[C@]12CC[C@H](CCC3CCNCC3)CC1[C@@H](CO)C(=O)[C@@H]1[C@@H]2CC[C@]2(C)C(=O)CC[C@@H]12", "note": "(stereo partly drawn) [CVie411, 3beta-[2-(piperidin-4-yl)ethyl]-6alpha-hydroxymethylandrostane-7,17-dione]", "values": [{"measurement": "% change in Ca2+ Kd vs control (negative = decrease)", "setting": "SERCA2a; compound 100 nM", "result": 0, "unit": "%"}, {"measurement": "Kd", "setting": "SERCA2a; [5]", "result": "428 ± 76.6", "unit": "nM"}, {"measurement": "% change in Ca2+ Kd vs control (negative = decrease)", "setting": "SERCA2a; compound 200 nM", "result": "−4.9", "unit": "%"}, {"measurement": "Kd", "setting": "SERCA2a; [6]", "result": "407 ± 111", "unit": "nM"}, {"measurement": "IC50", "setting": "[1]", "result": 1.9, "unit": "µM"}]}]}
